{"source": "patent US8044037B2", "about": "“Modified phosphocalcic compound, injectable composition containing same” (Centre National de la Recherche Scientifique, priority 2002, dated 2011)", "system": "rabbit osteoclast model (osteoclast resorption)", "assay": "Supernatants of incubated CDA samples tested in rabbit osteoclast model (FIG. 6)", "assay_type": "cell-based", "conditions": "supernatant after 96 hours at 37° C. (200 mg in 5 ml culture medium) or 10^−6 M zoledronate solution; pure, diluted 10-, 100- and 1000-fold", "procedure": "Several samples of CDA (200 mg) modified by adding zoledronate in accordance with the process of example 1 and several samples of unmodified CDA were incubated in 5 ml of culture medium at 37° C. After incubation for 96 hours, the various supernatants were collected and used pure, diluted 10-fold, 100-fold and 1000-fold in a rabbit osteoclast model.\nThe results are represented in FIG. 6, in which the percentage of resorption R is indicated on the y-axis, the conditions being indicated on the x-axis. Among the conditions: • “vehicle” means the culture medium alone • “pure CDA” means the supernatant derived from the incubation of pure CDA in the culture medium; “CDA 1/10”, “CDA 1/100” and “CDA 1/1000” mean, respectively, the solution referred to above and diluted to 1/10, 1/100 and 1/1000 • “pure zo” means a 10^−6 M solution of zoledronate in the culture medium, “zo 1/10”, “zo 1/100” and “zo 1/1000” mean, respectively, the solution referred to above and diluted to 1/10, 1/100 and 1/1000 • “pure CDAzo” means the supernatant derived from the incubation of zoledronate-containing CDA in the culture medium, and “CDAzo 1/10”, “CDAzo 1/100” and “CDAzo 1/1000” mean, respectively, the solution referred to above and diluted to 1/10, 1/100 and 1/1000.", "data": [{"molecule": "O=P(O)(O)C(O)(Cn1ccnc1)P(=O)(O)O", "note": "[zoledronate]", "values": [{"measurement": "effect on osteoclast resorption (percentage of resorption R, FIG. 6)", "value": "inhibits resorption according to a dose/effect relationship"}]}]}
